Patent US20260022142A1, “MACROCYCLIC IMMUNOMODULATORS” (Bristol-Myers Squibb Company, priority 2022, published 2026)
Numbered stars: 1 amine (or outer) side, 2 acyl side, 3 side chain; on linkers, the order of the positions; unused ones are H or OH. Bridge positions count the residues as written; N and C are the ends. Square brackets hold non-standard residues; d marks the D form. Peptide text beside a SMILES is read from it. * marks the point of attachment. ξ: configuration not given here. Phe(3-CF3) = N[C@@H](Cc1cccc(C(F)(F)F)c1)C(=O)O; Phe(4-COOH) = N[C@@H](Cc1ccc(C(=O)O)cc1)C(=O)O; Bip = N[C@@H](Cc1ccc(-c2ccccc2)cc1)C(=O)O; d(βAsp) = O=C(O)[C@@H](CC(=O)[*:2])N[*:1]; NH(CH2)14COOH = O=C(O)CCCCCCCCCCCCCCN*; Phe(3-Me) = Cc1cccc(C[C@H](N)C(=O)O)c1; γGlu = O=C(O)[C@H](CCC(=O)[*:2])N[*:1]; βAsp = O=C(O)[C@H](CC(=O)[*:2])N[*:1]; NH(CH2)12COOH = O=C(O)CCCCCCCCCCCCN*; Val(3-OH) = CC(C)(O)[C@H](N)C(=O)O; Cha = N[C@@H](CC1CCCCC1)C(=O)O; Thr(3ξ) = CC(O)[C@H](N)C(=O)O; Carboxymethyl = O=C(O)C*; Orn = NCCC[C@H](N)C(=O)O; Dab = NCC[C@H](N)C(=O)O; AEEA = NCCOCCOCC(=O)O; ξC = NC(CS)C(=O)O

Biological target: T1, PD-1/PD-L1 interaction (PE-labeled human PD-L1-Ig binding to Jurkat cell line over-expressing human PD-1) (Homo sapiens, UniProt Q15116)
T1 construct: expressed in transfected cells; host or cells: Jurkat
T1 sequence (Q15116 25-288): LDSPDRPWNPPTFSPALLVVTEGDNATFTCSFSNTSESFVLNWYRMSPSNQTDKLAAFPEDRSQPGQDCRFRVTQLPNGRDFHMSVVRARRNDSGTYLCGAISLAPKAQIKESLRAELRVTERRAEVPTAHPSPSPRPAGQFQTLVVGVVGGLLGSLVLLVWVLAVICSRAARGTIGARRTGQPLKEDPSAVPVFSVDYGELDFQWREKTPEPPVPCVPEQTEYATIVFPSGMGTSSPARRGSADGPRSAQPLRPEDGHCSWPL
Test: Jurkat-PD-1 Cell Binding High-Content Screening Assay (CBA)
Type: cell-based
Conditions: Jurkat cell line over-expressing human PD-1; PE-labeled PD-L1-Ig 20 nM final; read-out: Jurkat hPD1-PDL1 IC50
Outline: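 Jurkat cells stably over-expressing human PD-1 were seeded in DMEM with 10% fetal calf serum and pre-incubated with compound for 2 h at 37° C. PE-labeled human PD-L1-Ig was then added at 20 nM final for 1 hour, after which cells were fixed with paraformaldehyde, Hoechst-stained and imaged by high-content microscopy.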

Structure (SMILES)	IC50 [nM]
CC(C)C[C@H]1NC(=O)[C@H](CCCN)NC(=O)[C@H](Cc2ccc(OCC(=O)O)cc2)NC(=O)[C@H](Cc2ccc(-c3ccccc3)cc2)NC(=O)[C@H](Cc2ccc(OCC(=O)O)cc2)NC(=O)[C@H](Cc2cccc(C(F)(F)F)c2)NC(=O)[C@H](CC(=O)O)NC(=O)[C@H](Cc2ccc(OCC(=O)O)cc2)NC(=O)[C@H](Cc2ccc(OCC(=O)O)cc2)NC(=O)CSC[C@@H](C(=O)N[C@@H](CCN)C(=O)NCCOCCOCC(=O)NCCOCCOCC(=O)N[C@@H](CCC(=O)N[C@@H](CCC(=O)NCCCCCCCCCCCCCCC(=O)O)C(=O)O)C(=O)O)NC(=O)[C@H](Cc2cnc[nH]2)NC(=O)[C@H](C(C)(C)O)NC(=O)[C@H](CC2CCCCC2)NC(=O)[C@H](CCN)NC1=O [Compound 3872] ({CH2CO}-Y(Carboxymethyl)Y(Carboxymethyl)D[Phe(3-CF3)]Y(Carboxymethyl)[Bip]Y(Carboxymethyl)[Orn][dL][Dab][Cha][Val(3-OH)]HC[Dab][AEEA][AEEA][γGlu][γGlu]-{NH(CH2)14COOH}; thioether N-14)	174
Cc1cccc(C[C@@H]2NC(=O)[C@H](CC(=O)O)NC(=O)[C@H](Cc3ccc(OCC(=O)O)cc3)NC(=O)[C@H](CC(C)C)NC(=O)CSC[C@@H](C(=O)N[C@@H](CCN)C(=O)NCCOCCOCC(=O)N[C@H](CC(=O)NCCOCCOCC(=O)NCCCCCCCCCCCCC(=O)O)C(=O)O)NC(=O)[C@H](CCC(=O)O)NC(=O)[C@H](C(C)(C)O)NC(=O)[C@H](CC3CCCCC3)NC(=O)[C@H](CCN)NC(=O)[C@@H](CC(C)C)NC(=O)[C@H](CCCN)NC(=O)[C@H](Cc3ccc(OCC(=O)O)cc3)NC(=O)[C@H](Cc3ccc(-c4ccccc4)cc3)NC(=O)[C@H](Cc3ccc(OCC(=O)O)cc3)NC2=O)c1 [Compound 3877] ({CH2CO}-LY(Carboxymethyl)D[Phe(3-Me)]Y(Carboxymethyl)[Bip]Y(Carboxymethyl)[Orn][dL][Dab][Cha][Val(3-OH)]EC[Dab][AEEA][d(βAsp)][AEEA]-{NH(CH2)12COOH}; thioether N-14)	26.3
Cc1cccc(C[C@@H]2NC(=O)[C@H](CC(=O)O)NC(=O)[C@H](Cc3ccc(OCC(=O)O)cc3)NC(=O)[C@H](C(C)O)NC(=O)CSCC(C(=O)N[C@@H](CCN)C(=O)NCCCCCCCCCCCCC(=O)O)NC(=O)[C@H](CO)NC(=O)[C@H](C(C)(C)O)NC(=O)[C@H](CC3CCCCC3)NC(=O)[C@H](CCN)NC(=O)[C@@H](CC(C)C)NC(=O)[C@H](CCCN)NC(=O)[C@H](CCCNC(=N)N)NC(=O)[C@H](Cc3ccc(-c4ccccc4)cc3)NC(=O)[C@H](Cc3ccc(O)cc3)NC2=O)c1 (stereo partly drawn) [Compound 3882] ({CH2CO}-[Thr(3ξ)]Y(Carboxymethyl)D[Phe(3-Me)]Y[Bip]R[Orn][dL][Dab][Cha][Val(3-OH)]S[ξC][Dab]-{NH(CH2)12COOH}; thioether N-14)	26.8
Cc1cccc(C[C@@H]2NC(=O)[C@H](CC(=O)O)NC(=O)[C@H](Cc3ccc(C(=O)O)cc3)NC(=O)[C@H](C)NC(=O)CSC[C@@H](C(=O)N[C@@H](CCN)C(=O)NCCOCCOCC(=O)N[C@@H](CCC(=O)O)C(=O)N[C@@H](CC(=O)NCCOCCOCC(=O)NCCCCCCCCCCCCCCC(=O)O)C(=O)O)NC(=O)[C@H](Cc3cnc[nH]3)NC(=O)[C@H](C(C)(C)O)NC(=O)[C@H](CC3CCCCC3)NC(=O)[C@H](CCN)NC(=O)[C@@H](CC(C)C)NC(=O)[C@H](CCCN)NC(=O)[C@H](Cc3ccc(C(=O)O)cc3)NC(=O)[C@H](Cc3ccc(-c4ccccc4)cc3)NC(=O)[C@H](Cc3ccc(C(=O)O)cc3)NC2=O)c1 [Compound 3884] ({CH2CO}-A[Phe(4-COOH)]D[Phe(3-Me)][Phe(4-COOH)][Bip][Phe(4-COOH)][Orn][dL][Dab][Cha][Val(3-OH)]HC[Dab][AEEA]E[βAsp][AEEA]-{NH(CH2)14COOH}; thioether N-14)	147

Next, values leading:

IC50 [nM]	Structure (SMILES)
70.5	CC(C)C[C@@H]1NC(=O)CSC[C@@H](C(=O)N[C@@H](CCN)C(=O)NCCCCCCCCCCCCC(=O)O)NC(=O)[C@H](Cc2cnc[nH]2)NC(=O)[C@H](C(C)(C)O)NC(=O)[C@H](CC2CCCCC2)NC(=O)[C@H](CCN)NC(=O)[C@@H](CC(C)C)NC(=O)[C@H](CCCN)NC(=O)[C@H](Cc2ccc(OCC(=O)O)cc2)NC(=O)[C@H](Cc2ccc(-c3ccccc3)cc2)NC(=O)[C@H](Cc2ccc(OCC(=O)O)cc2)NC(=O)[C@H](Cc2cccc(C(F)(F)F)c2)NC(=O)[C@H](CC(=O)O)NC(=O)[C@H](Cc2ccc(OCC(=O)O)cc2)NC1=O [Compound 3873] ({CH2CO}-LY(Carboxymethyl)D[Phe(3-CF3)]Y(Carboxymethyl)[Bip]Y(Carboxymethyl)[Orn][dL][Dab][Cha][Val(3-OH)]HC[Dab]-{NH(CH2)12COOH}; thioether N-14)
815	CC(C)C[C@@H]1NC(=O)CSC[C@@H](C(=O)N[C@@H](CCN)C(=O)NCCCCCCCCCCCCCCC(=O)O)NC(=O)[C@H](CCC(=O)O)NC(=O)[C@H](C(C)(C)O)NC(=O)[C@H](CC2CCCCC2)NC(=O)[C@H](CCN)NC(=O)[C@@H](CC(C)C)NC(=O)[C@H](CCCN)NC(=O)[C@H](Cc2ccc(OCC(=O)O)cc2)NC(=O)[C@H](Cc2ccc(-c3ccccc3)cc2)NC(=O)[C@H](Cc2ccc(OCC(=O)O)cc2)NC(=O)[C@H](Cc2cccc(C(F)(F)F)c2)NC(=O)[C@H](CC(=O)O)NC(=O)[C@H](Cc2ccc(OCC(=O)O)cc2)NC1=O [Compound 3874] ({CH2CO}-LY(Carboxymethyl)D[Phe(3-CF3)]Y(Carboxymethyl)[Bip]Y(Carboxymethyl)[Orn][dL][Dab][Cha][Val(3-OH)]EC[Dab]-{NH(CH2)14COOH}; thioether N-14)
147	CC(=O)NCCCC[C@@H]1NC(=O)[C@H](C(C)(C)O)NC(=O)[C@H](CC2CCCCC2)NC(=O)[C@H](CCN)NC(=O)[C@@H](CC(C)C)NC(=O)[C@H](CCCN)NC(=O)[C@H](CCC(N)=O)NC(=O)[C@H](Cc2ccc(-c3ccccc3)cc2)NC(=O)[C@H](Cc2ccc(OCC(=O)O)cc2)NC(=O)[C@H](Cc2cccc(C(F)(F)F)c2)NC(=O)[C@H](CC(=O)O)NC(=O)[C@H](Cc2ccc(OCC(=O)O)cc2)NC(=O)[C@H](Cc2ccc(OCC(=O)O)cc2)NC(=O)CSC[C@@H](C(=O)N[C@@H](CCN)C(=O)NCCCCCCCCCCCCCCC(=O)O)NC1=O [Compound 3875] ({CH2CO}-Y(Carboxymethyl)Y(Carboxymethyl)D[Phe(3-CF3)]Y(Carboxymethyl)[Bip]Q[Orn][dL][Dab][Cha][Val(3-OH)]K(Ac)C[Dab]-{NH(CH2)14COOH}; thioether N-14)
24.5	CC(=O)NCCCC[C@@H]1NC(=O)[C@H](C(C)(C)O)NC(=O)[C@H](CC2CCCCC2)NC(=O)[C@H](CCN)NC(=O)[C@@H](CC(C)C)NC(=O)[C@H](CCCN)NC(=O)[C@H](CCC(N)=O)NC(=O)[C@H](Cc2ccc(-c3ccccc3)cc2)NC(=O)[C@H](Cc2ccc(C(=O)O)cc2)NC(=O)[C@H](Cc2cccc(C(F)(F)F)c2)NC(=O)[C@H](CC(=O)O)NC(=O)[C@H](Cc2ccc(OCC(=O)O)cc2)NC(=O)[C@H](Cc2ccc(OCC(=O)O)cc2)NC(=O)CSC[C@@H](C(=O)N[C@@H](CCN)C(=O)NCCCCCCCCCCCCC(=O)O)NC1=O [Compound 3881] ({CH2CO}-Y(Carboxymethyl)Y(Carboxymethyl)D[Phe(3-CF3)][Phe(4-COOH)][Bip]Q[Orn][dL][Dab][Cha][Val(3-OH)]K(Ac)C[Dab]-{NH(CH2)12COOH}; thioether N-14)
